Patent US7713963B2, “Acylated indanyl amines and their use as pharmaceuticals” (sanofi-aventis Deutschland GmbH, priority 2001, dated 2010)

Assays:
eNOS promoter = test: Activation of eNOS transcription (eNOS promoter-luciferase reporter gene assay); assay type: cell-based, human; conditions: Homo sapiens, 18 h, 18 h incubation; for maximal fold induction: maximum transcription induction ratio (luciferase with compound / solvent alone), read-out: TIR (max); for EC50: Endothelial cell, EC50 of transcription induction ratio, determined graphically, human endothelial cell line, read-out: EC-50
Summary of the method: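 Human endothelial cell line stably expressing firefly luciferase under a 3.5 kB eNOS promoter fragment, treated 18 h with compounds (0.5% DMSO final). Luciferase induction relative to solvent gives transcription induction ratio; EC50 read graphically from ratio versus concentration.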

ApoE deficient mice [1] = test: Anti-hypertensive effect in ApoE knockout mice (tail-cuff blood pressure); assay type: in vivo; conditions: 30 mg/kg/d, 4 months treatment, placebo 115±2 mmHg, p<0.05
Source text: (§1) Animals and Treatment (Experiments A-C)
(§2) ApoE and eNOS deficient mice (C57BL/6J background, Jackson Laboratory, Bar Harbor, Me.) were used. All animals were 10-12 weeks of age and weighed 22 to 28 g. Three days before surgery mice were divided into 4 groups (apoE control, n=10-12; apoE with test compounds, n=10-12; eNOS control, n=10-12; eNOS with test compounds, n=10-12) and received either a standard rodent chow (containing 4% fat and 0.001% cholesterol; in the following designated as placebo group) or a standard rodent chow+test compound (10 or 30 mg/kg/d p.o.).
A Anti-Hypertensive Effect in ApoE Knockout Mice
(§3) Blood-pressure was determined in conscious mice using a computerized tail-cuff system (Visitech Systems, Apex, Nc). After treatment of ApoE deficient mice and eNOS deficient mice with the test compounds the blood pressure was compared to the results obtained with a placebo treatment.

eNOS deficient mice = test: Blood pressure in eNOS deficient mice (tail-cuff); assay type: in vivo; conditions: similar dosing, 4 weeks treatment
Source text: as §1, §2, §3

ApoE deficient mice [2] = test: Inhibition of neointima formation and atherogenesis (femoral artery cuff) in ApoE deficient mice; assay type: in vivo; conditions: 10 mg/kg/d in chow, 3 days before to 14 days after cuff surgery, versus placebo
Source text: as §1, §2
B Inhibition of Neointima Formation and Atherogenesis (Femoral Artery Cuff)
After 3 day treatment of ApoE deficient mice with the respective compound, (10 mg/kg/d pressed in chow), animals were anesthetized with an intraperitoneal injection of pentobarbital (60 mg/kg) followed by an intramuscular injection of xylazin (2 mg/kg) and a cuff was placed around the femoral artery as described in Moroi et al. (J. Clin. Invest. 101: 1225-32, 1998). Briefly, the left femoral artery was dissected. […] The aorta were taken for determination of vascular eNOS expressions by quantitative western blotting. […] For each cross section the area of the lumen, the neointima and the media were determined. […] The ratio between the area of the neointima and the area of the media was expressed as the neointima/media ratio.

vascular eNOS expression [3] = test: Vascular eNOS expression (aorta, quantitative western blotting) in femoral artery cuff model; assay type: in vivo; conditions: ApoE deficient mice, 10 mg/kg/d, versus placebo
Procedure: After 3 day treatment of ApoE deficient mice with the respective compound, (10 mg/kg/d pressed in chow), animals were anesthetized with an intraperitoneal injection of pentobarbital (60 mg/kg) followed by an intramuscular injection of xylazin (2 mg/kg) and a cuff was placed around the femoral artery as described in Moroi et al. (J. Clin. Invest. 101: 1225-32, 1998). Briefly, the left femoral artery was dissected. A non-occlusive 2.0 mm polyethylene cuff made of PE-50 tubing (inner diameter 0.56 mm, outer diameter 0.965 mm, Becton Dickinson, Mountain View, Calif.) was placed around the artery and tied in place with two 7-0 sutures. The right femoral artery was isolated from the surrounding tissues but a cuff was not placed. Treatment with the respective compound was continued for 14 days after surgery. Then the animals were sacrificed. The aorta were taken for determination of vascular eNOS expressions by quantitative western blotting. Both femoral arteries were harvested, fixed in formalin and embedded in paraffin. 20 cross sections (10 μm) were cut from the cuffed portion of the left femoral artery and from the corresponding segment of the right artery. […] For each cross section the area of the lumen, the neointima and the media were determined. […] The ratio between the area of the neointima and the area of the media was expressed as the neointima/media ratio.

vascular eNOS expression [4] = test: Vascular eNOS expression (femoral arteries) after chronic treatment; assay type: in vivo; conditions: ApoE deficient mice, 16 weeks treatment
Procedure: ApoE deficient mice were treated for 16 weeks with the respective compound pressed in chow and finally sacrificed. Aortas were removed from each mouse, fixed in formalin and embedded in paraffin. Plaque formation was measured via lipid lesion formation in the aortas (from aortic arch to diaphragm) and was analyzed by oil red O staining. For quantifying the effect of the respective compound on vascular eNOS expression the femoral arteries were used in this experiment.

ApoE deficient mice [5] = test: Improvement of coronary function in diseased ApoE deficient mice (isolated working heart); assay type: in vivo; conditions: isolated hearts of ApoE deficient mice, 30 mg/kg/d p.o. for 8 weeks
Source text: D Improvement of Coronary Function in Diseased ApoE Deficient Mice
Old Male wild-type C57BL/6J mice (Charles River Wiga GmbH, Sulzfeld), and apoE deficient mice (C57BL/6J background, Jackson Laboratory, Bar Harbor, Me.) 6 month of age and weighing 28 to 36 g were used in the experiments. Mice were divided into 3 groups (C57BL/6, n=8; apoE control, n=8; apoE with respective compound, n=8) and received for 8 weeks either a standard rodent chow (containing 4% fat and 0.001% cholesterol) or a standard rodent chow+respective compound (30 mg/kg/d p.o.).
Mice were anesthetized with sodium pentobarbitone (100 mg/kg i.p.), and the hearts were rapidly excised and placed into ice-cold perfusion buffer. The aorta was cannulated and connected to a perfusion apparatus (HUGO SACHS ELECTRONICS, Freiburg, Germany) which was started immediately at a constant perfusion pressure of 60 mm Hg. Hearts were perfused in a retrograde fashion with modified Krebs bicarbonate buffer, equilibrated with 95% O2 and 5% CO2 and maintained at 37.5° C.
A beveled small tube (PE 50) was passed through a pulmonary vein into the left ventricle and pulled through the ventricular wall, anchored in the apex by a fluted end, and connected to a tip-micromanometer (Millar 1.4 French). The left atrium was cannulated through the same pulmonary vein and the heart switched to the working mode with a constant preload pressure of 10 mm Hg and an afterload pressure of 60 mm Hg. Aortic outflow and atrial inflow were continuously measured using ultrasonic flow probes (HSE/Transonic Systems Inc.). Coronary flow was calculated as the difference between atrial flow and aortic flow. All hemodynamic data were digitized at a sampling rate of 1000 Hz and recorded with a PC using specialized software (HEM, Notocord).
Hearts were allowed to stabilize for 30 min. All functional hemodynamic data were measured during steady state, and during volume- and pressure loading.
Left ventricular function curves were constructed by varying pre-load pressure. […]

Row | Compound | maximal fold induction (eNOS promoter) | EC50 (eNOS promoter) | blood pressure (ApoE deficient mice [1]) | blood pressure reduction (eNOS deficient mice) | reduction of neo-intima formation (factor) (ApoE deficient mice [2]) | vascular eNOS expression enhanced by a factor (vascular eNOS expression [3]) | vascular eNOS expression up-regulation (vascular eNOS expression [4]) | pre-load dependent coronary flow (ApoE deficient mice [5]) | incidence of ventricular arrhythmias (ApoE deficient mice [5]; indicator for anti-ischemic efficacy) | coronary flow (ApoE deficient mice [5]; untreated ApoE 3.6, wildtype 4.95 ml/min) | melting point
1 | O=C(NC1Cc2ccccc2C1)c1ccc(F)cc1 [Compound 21, 4-FLUORO-N-(INDAN-2-YL)-BENZAMIDE] | 4.1 | 0.8 µM | 92±5 mmHg | No blood pressure reduction | 2 | 2.1 | 1.75 fold | improvement | reduction | 5 mL/min | 
2 | O=C(NC1Cc2ccccc2C1)c1ccc2c(c1)OC(F)(F)O2 [Compound 66, 2,2-DIFLUORO-BENZO[1,3]DIOXOL-5-CARBOXYLIC ACID INDAN-2-YLAMIDE] | 2.7 | 0.14 µM |  |  |  |  |  |  |  |  | 147.5 °C
3 | O=C(NC1Cc2cccc(-c3ccc(F)cc3)c2C1)c1ccc(F)cc1 (stereo not shown) [Compound 398B, 4-FLUORO-N-[4-(4-FLUOROPHENYL)-INDAN-2-YL]-BENZAMIDE] | 3.46 | 30 µM |  |  |  |  |  |  |  |  | 157 °C
4 | O=C(NC1Cc2ccc(O)cc2C1)c1ccc(F)cc1 (stereo not shown) [Compound 404, 4-FLUORO-N-(5-HYDROXY-INDAN-2-YL)-BENZAMIDE] | 3.5 | 12 µM |  |  |  |  |  |  |  |  | 199 °C
